According to patent US20100273189A1, “NON SEPARATION ASSAYS WITH SELECTIVE SIGNAL INHIBITORS” (BECKMAN COULTER, INC., priority 2009, published 2010):

Target: T1, biotinylated HRP (Armoracia rusticana, UniProt P00433)
T1 construct: purchased Roche Diagnostics, Indianapolis, Ind., USA
T1 sequence (P00433 31-338 limits assumed): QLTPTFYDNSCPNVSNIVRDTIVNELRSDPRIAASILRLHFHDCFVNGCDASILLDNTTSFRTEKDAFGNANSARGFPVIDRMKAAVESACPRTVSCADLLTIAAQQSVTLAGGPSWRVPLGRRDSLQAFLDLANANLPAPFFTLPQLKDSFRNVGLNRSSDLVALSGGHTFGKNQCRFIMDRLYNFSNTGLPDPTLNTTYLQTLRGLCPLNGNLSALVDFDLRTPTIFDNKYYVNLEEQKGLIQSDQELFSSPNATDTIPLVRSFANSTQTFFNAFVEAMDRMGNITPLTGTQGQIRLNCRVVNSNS
Experiment: Model system for selection of SSIA (M280 btn-BSA-AK1-streptavidin particles + Btn-HRP:HRP)
Assay type: biochemical
Details: for S/S0: Btn-HRP 0 ng/mL vs 0; for S/S0 / S1/S0 / S2/S0 / S3/S0 / S4/S0 / effect in the model system / utility as SSIA: SSIA 100 μM; for B-HRP0 light intensity: Btn-HRP 0 ng/mL; for B-HRP0 light intensity / B-HRP1 light intensity / B-HRP10 light intensity / B-HRP100 light intensity / B-HRP250 light intensity: total HRP 500 ng/mL, SSIA final 100 μM; for S1/S0: Btn-HRP 1 ng/mL vs 0; for B-HRP1 light intensity: Btn-HRP 1 ng/mL; for S2/S0: Btn-HRP 10 ng/mL vs 0; for B-HRP10 light intensity: Btn-HRP 10 ng/mL; for S3/S0: Btn-HRP 100 ng/mL vs 0; for B-HRP100 light intensity: Btn-HRP 100 ng/mL; for S4/S0: Btn-HRP 250 ng/mL vs 0; for B-HRP250 light intensity: Btn-HRP 250 ng/mL; for effect in the model system / utility as SSIA: conclusion in words
Procedure: The model system uses a microparticle conjugated to BSA (bovine serum albumin) labeled with a […] and acridan ketenedithioacetal chemiluminescent label (AK1) as the chemiluminescent-labeled sbp, and biotinylated HRP as the activator-labeled specific binding pair. In the model system, varying amounts of Btn-HRP is added to the chemiluminescent-labeled specific binding pair at 0, 1, 10, 100 and 250 ng/mL. Additional unlabeled HRP is added to reach a total HRP of concentration of 500 ng/mL in each reaction mixture. The unlabeled HRP in combination with the activator-labeled sbp was provided to the chemiluminescent-labeled sbp microparticles to emulate sample. A compound for assessment as an SSIA was also added. This reaction mixture of the model system is then triggered by addition of trigger solution in a manner of assays of the present disclosure.
To prepare the chemiluminescent-labeled sbp on microparticles, Bovine Serum Albumin (BSA) was biotinylated with 4× molar excess of biotin-LC-sulfoNHS (Pierce Biotechnology Inc., Rockford, Ill., USA). Unbound reactants were removed via desalting or dialysis. The biotin-BSA was then reacted with a 5× molar excess of acridan ketenedithioacetal AK1 in 20 mM sodium phosphate pH 7.2: DMSO 75:25, v/v) followed by desalting in the same buffer. The dual labeled (biotin and AK1) BSA was then coupled with tosyl activated M-280 microparticles (Invitrogen Corporation, Carlsbad, Calif., USA) in a 0.1 M borate buffer pH 9.5 at a concentration of ca. 20 μg labeled BSA per mg of microparticles for 16-24 h at 40° C. After coupling the microparticles were stripped for 1 h at 40° C. with 0.2 M TRIS base, 2% SDS, pH ˜11. The stripping process was repeated one additional time. Microparticles were then suspended in a 0.1% BSA/TRIS buffered saline (BSA/TBS) buffer and streptavidin (SA) was added at approximately 15 μg SA per mg microparticles. Streptavidin was mixed with the microparticles for 45-50 min at room temperature. The microparticles were then washed three times and suspended in the same BSA/TBS.
HRP, (Roche Diagnostics, Indianapolis, Ind., USA) was biotinylated with 4× molar excess of biotin-LC-sulfoNHS (Pierce Biotechnology Inc., Rockford, Ill., USA). Unbound reactants were removed via desalting or dialysis.
Each SSIA compound for assessment was dissolved in Buffer II at a concentration at least 10× of final concentration of the reaction mixture (after the addition of the trigger solution)
Paramagnetic particles (PMP): (M280)-(btn-BSA-AK)-(Streptavidin);
Sample Emulator: B-HRP:HRP; 500 ng/mL total with titration of B-HRP:HRP at Total HRP concentration of 500 ng/mL, with Btn-HRP variations: 0, 1, 10, 100 and 250 ng/mL.
SSIA: According to tables below in BUFFER II targeted to give a final concentration of 100 μM.
Trigger solution A is defined above.
5 μl of 1 mg/ml of dual-labeled (biotin and AK1) BSA M280 particles were mixed with 45 μl of working concentration SSIA in Buffer II. The assay volume brought to […] by adding 15 μl of Buffer II. 15 μl of sample containing Btn-HRP:HRP at different ratios (The amount of biotinylated-HRP varied from 0, 1, 10, 100 and 250 ng/mL) was added. The reaction mixture was incubated for 30 min at 37° C., then 100 μL of trigger solution was added and the light intensity recorded. Total volume of reaction mixture, including trigger solution was […] with a final concentration of 100 μM of SSIA.

| SMILES | S/S0 | B-HRP0 light intensity | S1/S0 | B-HRP1 light intensity | S2/S0 | B-HRP10 light intensity | S3/S0 | B-HRP100 light intensity | S4/S0 | B-HRP250 light intensity | effect in the model system / utility as SSIA |
| --- | --- | --- | --- | --- | --- | --- | --- | --- | --- | --- | --- |
| COc1ccc2[nH]cc(CCNC(C)=O)c2c1 [Melatonin] | 1 | 54,528 | 1.3 | 70,741 | 43.7 | 2,381,361 | 173.7 | 9,471,431 | 190.2 | 10,370,061 | no effect |
| COc1cc(C(=O)O)cc(OC)c1O [Syringic Acid] | 1 | 14,485 | 1.6 | 23,707 | 64.8 | 939,372 | 547.2 | 7,927,096 | 658 | 9,530,979 | – |
| Cc1c(C)c2c(c(C)c1O)CCC(C)(C(=O)O)O2 (stereo not shown) [Trolox ®, Trolox] | 1 | 173 | 8.4 | 1,460 | 215.1 | 37,291 | 41832.7 | 7,251,008 | 62274.5 | 10,794,247 | demonstrating utility as SSIA |
| O=c1[nH]c(=O)c2[nH]c(=O)[nH]c2[nH]1 [Uric Acid] | 1 | 5,532 | 1.8 | 9,760 | 185.3 | 1,025,209 | 1574.9 | 8,712,328 | 1935.8 | 10,708,733 | – |
| Oc1ccc(O)c(Cl)c1 [2-chloro-1,4-dihydroxybenzene] | 1 | 3,571 | 1.1 | 4,007 | 52.9 | 188,920 | 170.8 | 610,053 | 245.3 | 875,831 | demonstrating utility as SSIA |
| Nc1ccc(C(=O)O)cc1O [4-Amino-3-hydroxybenzoic acid, 4-amino-3-hydroxybenzoic acid] | 1 | 972 | 2.9 | 2,808 | 454.2 | 441,455 | 6076.7 | 5,906,521 | 6587.9 | 6,403,425 | demonstrating utility as SSIA |
| Cc1c(O)cc2c(c1C)O[C@](C)(CCC[C@H](C)CCC[C@H](C)CCCC(C)C)CC2 [(+)-gamma-Tocopherol, (+)-y-Tocopherol] | 1 | 6,051 | 1.8 | 10,924 | 278.7 | 1,686,079 | 1437.5 | 8,698,069 | 1699.4 | 10,282,504 | – |
| Oc1ccc(C=Cc2cc(O)cc(O)c2)cc1 [Resveratrol] | – | 64,051 | – | 81,452 | – | 1,073,968 | – | 5,944,792 | – | – | – |
| O=C(O)CCCC[C@@H]1CCSS1 (racemic) [Lipoic Acid] | 1 | 35,016 | 2 | 71,751 | 70 | 2,450,949 | 246.9 | 8,647,037 | 252.7 | 8,847,921 | no effect |
| CC1(C)CC(O)CC(C)(C)N1[O] [TEMPOL] | 1 | 22,621 | 1.5 | 33,873 | 86.8 | 1,963,369 | 407.6 | 9,220,799 | 467.6 | 10,578,104 | no effect |
| Cl.Nc1ccc(O)cc1O [4-aminoresorcinol HCl, 4-aminoresorcinol hydrochloride] | 1 | 675 | 1.7 | 1,163 | 110.8 | 74,764 | 489 | 330,056 | 384.5 | 259,541 | demonstrating utility as SSIA |
| CCCCCCCCCCCCCCCC(=O)OC[C@H](O)[C@H]1OC(=O)C(O)=C1O [Ascorbic Acid 6-palmitate, L-Ascorbic acid 6-Palmitate] | 1 | 81 | 4 | 327 | 502.4 | 40,863 | 100662.3 | 8,187,204 | 125193.6 | 10,182,411 | demonstrating utility as SSIA |
| CC(=O)N[C@@H](CS)C(=O)O [N-Ac-Cysteine, N-acetyl cysteine] | 1 | 43,647 | 1.1 | 47,636 | 40.3 | 1,757,607 | 199 | 8,685,795 | 234.2 | 10,219,869 | no effect |
| COc1cc(/C=C/C(=O)O)ccc1O [Ferulic acid] | 1 | 5,252 | 2.3 | 12,079 | 136.2 | 715,313 | 1672.9 | 8,785,865 | 1950.5 | 10,244,269 | – |
| Oc1ccc(Cl)cc1O [4-chlorocatechol] | 1 | 93 | 2.2 | 205 | 14.8 | 1,373 | 4910.8 | 456,707 | 13558.5 | 1,260,937 | demonstrating utility as SSIA |
